The values that follow come from ChEMBL document CHEMBL3639272, “2-morpholino-pyrido[3,2-D]pyrimidines” (2013).

Usually IC50 stands for the concentration that inhibits the measured activity by half.

The test deals with Phosphatidylinositol 4,5-bisphosphate 3-kinase catalytic subunit alpha isoform (Homo sapiens, UniProt P42336). Briefly: Biological Assays: The efficacy of compounds of the invention in inhibiting the PI3K induced-lipid phosphorylation may be tested in the following binding assay. The assay combines the scintillation proximity assay technology (SPA, Amersham) with the capacity of neomycin (a polycationic antibiotic) to bind phospholipids with high affinity and specificity. The Scintillation Proximity Assay is based on the properties of weakly emitting isotopes (such as 3H, 125I, 33P). Coating SPA beads with neomycin allows the detection of phosphorylated lipid substrates after incubation with recombinant PI3K and radioactive ATP in the same well, by capturing the radioactive phospholipids to the SPA beads through their specific binding to neomycin. Background: Scintillation proximity formats need no separation of bound from free tracer.
Phosphatidylinositol 4,5-bisphosphate 3-kinase catalytic subunit alpha isoform, sequence (P42336 whole entry, canonical isoform): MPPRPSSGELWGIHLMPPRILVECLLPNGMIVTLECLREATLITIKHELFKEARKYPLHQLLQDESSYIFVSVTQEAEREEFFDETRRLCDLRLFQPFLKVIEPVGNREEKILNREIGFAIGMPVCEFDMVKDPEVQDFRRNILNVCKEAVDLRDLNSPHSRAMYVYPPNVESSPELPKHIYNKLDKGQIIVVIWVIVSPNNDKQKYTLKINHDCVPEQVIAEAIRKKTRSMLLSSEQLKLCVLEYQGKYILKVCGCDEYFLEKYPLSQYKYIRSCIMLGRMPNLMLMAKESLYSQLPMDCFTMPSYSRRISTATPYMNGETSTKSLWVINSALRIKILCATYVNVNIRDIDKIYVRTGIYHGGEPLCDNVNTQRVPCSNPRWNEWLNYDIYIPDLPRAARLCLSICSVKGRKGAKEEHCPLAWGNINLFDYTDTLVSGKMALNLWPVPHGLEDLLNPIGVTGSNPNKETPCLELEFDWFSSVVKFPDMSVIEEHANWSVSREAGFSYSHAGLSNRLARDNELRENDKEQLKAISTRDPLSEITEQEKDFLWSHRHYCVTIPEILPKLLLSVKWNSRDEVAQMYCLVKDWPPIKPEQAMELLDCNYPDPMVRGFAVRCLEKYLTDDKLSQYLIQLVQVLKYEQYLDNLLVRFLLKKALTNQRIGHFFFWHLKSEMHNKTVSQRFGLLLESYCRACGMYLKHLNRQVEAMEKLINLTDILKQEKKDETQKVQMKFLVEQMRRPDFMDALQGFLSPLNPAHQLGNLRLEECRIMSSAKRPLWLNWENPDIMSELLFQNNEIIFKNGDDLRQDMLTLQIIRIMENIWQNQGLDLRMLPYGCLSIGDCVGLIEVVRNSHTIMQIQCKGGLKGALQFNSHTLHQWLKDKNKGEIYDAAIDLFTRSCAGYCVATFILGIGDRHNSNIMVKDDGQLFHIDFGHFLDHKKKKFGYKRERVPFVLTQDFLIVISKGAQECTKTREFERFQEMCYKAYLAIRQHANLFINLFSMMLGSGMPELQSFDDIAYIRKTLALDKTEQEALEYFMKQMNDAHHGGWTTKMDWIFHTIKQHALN

With `O=C(O)c1cc(-c2cccc3ccccc23)c2nc(N3CCOCC3)nc(-c3cccc(O)c3)c2n1`, the IC50 came out at 57 nM.
